One compound from publication PMC2568864, “Chemical Dissection of the Link between Streptozotocin, O-GlcNAc, and Pancreatic Cell Death” (Chemistry & Biology, 2008) can be followed below.

Each structure is given as a SMILES string.

In the experiment the target is T1, human O-GlcNAcase (hOGA) (Homo sapiens, UniProt O60502).
T1 construct: gene OGA; residues 53–916, GST fusion
T1 sequence (O60502 53-916): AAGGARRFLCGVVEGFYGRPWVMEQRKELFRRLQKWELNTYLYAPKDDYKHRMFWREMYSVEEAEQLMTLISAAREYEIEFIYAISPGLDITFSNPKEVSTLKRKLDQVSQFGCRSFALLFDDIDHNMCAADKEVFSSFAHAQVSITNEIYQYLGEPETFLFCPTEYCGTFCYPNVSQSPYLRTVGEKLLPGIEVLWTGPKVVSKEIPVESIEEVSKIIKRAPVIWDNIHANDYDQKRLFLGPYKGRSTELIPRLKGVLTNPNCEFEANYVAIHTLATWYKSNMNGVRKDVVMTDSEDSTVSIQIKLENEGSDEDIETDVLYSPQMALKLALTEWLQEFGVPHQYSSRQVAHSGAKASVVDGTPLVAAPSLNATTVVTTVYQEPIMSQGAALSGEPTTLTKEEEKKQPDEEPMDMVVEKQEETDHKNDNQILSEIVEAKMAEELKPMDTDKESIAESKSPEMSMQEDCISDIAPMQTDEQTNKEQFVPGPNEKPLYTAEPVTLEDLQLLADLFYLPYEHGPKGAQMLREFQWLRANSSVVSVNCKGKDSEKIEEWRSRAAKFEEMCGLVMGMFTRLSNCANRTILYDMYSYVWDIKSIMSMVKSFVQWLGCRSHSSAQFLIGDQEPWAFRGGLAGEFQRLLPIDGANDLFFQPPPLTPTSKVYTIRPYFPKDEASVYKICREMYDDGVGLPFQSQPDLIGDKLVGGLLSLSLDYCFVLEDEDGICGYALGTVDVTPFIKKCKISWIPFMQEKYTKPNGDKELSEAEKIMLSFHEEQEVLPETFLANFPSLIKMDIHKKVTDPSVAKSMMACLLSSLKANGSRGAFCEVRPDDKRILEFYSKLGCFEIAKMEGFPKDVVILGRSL
The experiment can be described thus: steady-state kinetics with fluorogenic 4MU-GlcNAc, Lineweaver-Burk, competitive inhibition fit. The experiment is classed as biochemical.

In turn, `CN(N=O)C(=O)N[C@H]1C(O)O[C@H](CO)[C@@H](O)[C@@H]1O` (stereo partly shown) [STZ, streptozotocin] came in with a Ki of 64 ± 3 µM.
